Where two headings read alike, the source gives them in different places.

One data set relates to human PBMC. The data set is described as follows: hPBMC cytokine release assay (Luminex, IFN-β). In kind it is cell-based. To be noted: read-out: Agonist_hPBMC_IFN-β_EC50. How it is done:
This is the cytokines concentration detection with Luminex assay for human PBMC supernatant. Human peripheral blood mononuclear cells (PBMC) are treated by compounds with appropriate time. Multiple cytokines are released in the supernatant in response to the compound stimulation. Luminex assay can measure the cytokines concentration in supernatant and the compounds activity on human PBMC can be evaluated.
Frozen PBMC was thawed and cultured in PRMI1640 (GIBCO 11875-093) whole medium with […] Heat inactivated-FBS (HI—FBS), 1% NEAA, […] in CO2 incubator overnight. Cells were centrifuged at 400×g for 5 minutes at 4° C. and the pellet was re-suspended with complete RPMI1640 medium to concentration of 1×10^6 cells/ml in cell culture flask T75 (Thermo Fisher Scientific). Compounds were serially diluted with DMSO and distributed to 96-well flat bottom cell plate (Corning 3599) with Echo555. 90 μL/well PBMC cells were seeded into the plates with Multidrop (Thermo Fisher Scientific). After 24 hours of incubation in CO2 incubator, cells were centrifuged at 400×g for 5 minutes at room temperature, 80 μL supernatant each well was collected for cytokines release test with luminex assay of Human custom ProcartaPlex 5-plex kit (Thermo Fisher Scientific PPX-05). 10 μL supernatant or standards were added to a mixture of color-coded beads, 5 μL Biotinylated detection antibodies specific to the analytes of interest were added and formed an antibody-antigen sandwich. 10 μL Phycoerythrin (PE)-conjugated streptavidin is added to the plate and then read signal of each well on the Luminex 200™. The raw data was analyzed by Millipore Analyst Software and cytokine concentrations were generated accordingly. The EC50 of corresponding cytokine such as interferon-β (IFN-β) was calculated by the 4-parameter sigmoidal concentration response model fitting.

Data set [1] can be described thus: Single dose pharmacokinetics (SDPK) in female C57BL/6J mice. The class given is in vivo. To be noted: mouse, plasma, 1 mg/kg, iv. How it is done:
This is the single dose pharmacokinetics (PK) study in female C57/BL6 mice. The purpose of this study was to determine the pharmacokinetics of selected compounds following a single intravenous bolus injection in female C57BL/6J mice. Briefly, 3 female C57BL/6J mice (available from Shanghai Lingchang Biotechnology Co., Ltd) were treated with a single dose of compound intravenously at 1 mg/kg (IV). Blood samples were collected at 5 min, 15 min, 30 min, 1 h, 2 h, 4 h, 7 h and 24 h post-dose. Blood samples were placed on wet ice until centrifugation to obtain plasma samples. The compound concentration in plasma samples was determined using LC-MS/MS method. The pharmacokinetic parameters were calculated by non-compartmental analysis.

The test system of data set [2] is interferon regulatory factor (IRF) pathway in THP1-Dual™ cells. Nature of the data set: THP1-Dual reporter gene assay (Agonist_THP1_EC50). To be noted: Homo sapiens, 20-24 hrs compound treatment, Lucia luciferase (IRF) readout. In kind it is cell-based. The method in brief:
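Human THP-1 monocytes with Lucia luciferase under ISG54 minimal promoter plus five ISREs; ~33,000 cells/well with serially diluted compound, final 1% DMSO, 20-24 h at 37 °C. Supernatant Lucia luciferase read by QUANTI-Luc Gold luminescence; viability by CCK-8, A450 after 2 h.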

[3] abbreviates: female, C57BL/6J, prior art compounds (Table 4).
Setting [4] is: 24 hours incubation, IFN-β in supernatant.

For `CCn1nc(C)c(O)c1-c1nnc(-c2nc(C(N)=O)cc3c2cnn3C)[nH]1` [AC01, reference compound], the EC50 in the data set with human PBMC (prior art compounds (Table 4), IFN-β) was 28 nM. In data set [1] (setting [3]), this compound gave an exposure AUC(0-t) of 102 ng·h/mL, a C0 of 997 ng/mL and a clearance of 170 mL/min/kg.

As to `CCn1nc(C)c(O)c1-c1n[nH]c(-c2c(F)c(C(N)=O)n3cc(C)ncc23)n1` [Example 4, 8-[3-(2-ethyl-4-hydroxy-5-methyl-pyrazol-3-yl)-1H-1,2,4-triazol-5-yl]-7-fluoro-3-methyl-pyrrolo[1,2-a]pyrazine-6-carboxamide], the EC50 in data set [2] is 162 nM. In addition, in data set [1] (female C57BL/6J mice), the AUC(0-t) was 122 ng·h/mL, the C0 is 1720 ng/mL and the clearance was 137 mL/min/kg.

In data set [2], `CCCn1nc(C)c(O)c1-c1n[nH]c(-n2nc(C(N)=O)c3cc(C)ncc32)n1` [Example 31, 1-[3-(4-hydroxy-5-methyl-2-propyl-pyrazol-3-yl)-1H-1,2,4-triazol-5-yl]-5-methyl-pyrazolo[3,4-c]pyridine-3-carboxamide] registered an EC50 of 19 nM. The EC50 in the data set on human PBMC (setting [4]) amounted to 32 nM. In data set [1] (female C57BL/6J mice), the exposure AUC(0-t) was determined as 597 ng·h/mL, the C0 is 5500 ng/mL and the clearance came to 30 mL/min/kg.

As to `Cc1cc2c(C(N)=O)nn(-c3nc(-c4c(O)c(C)nn4CCc4ccccc4)n[nH]3)c2cn1` [Example 40, 1-[3-[4-hydroxy-5-methyl-2-(2-phenylethyl)pyrazol-3-yl]-1H-1,2,4-triazol-5-yl]-5-methyl-pyrazolo[3,4-c]pyridine-3-carboxamide], the EC50 in data set [2] is 11 nM. Also, in the data set on human PBMC (setting [4]), the EC50 was determined as 46 nM. Also, in data set [1] (female C57BL/6J mice), the area under the curve AUC(0-t) is 151 ng·h/mL, the C0 turned out to be 1600 ng/mL and the clearance turned out to be 114 mL/min/kg.

`CCCn1nc(C)c(O)c1-c1n[nH]c(-c2c(F)c(C(N)=O)n3cc(C)ncc23)n1` [Example 79, 7-fluoro-8-[3-(4-hydroxy-5-methyl-2-propyl-pyrazol-3-yl)-1H-1,2,4-triazol-5-yl]-3-methyl-pyrrolo[1,2-a]pyrazine-6-carboxamide] gave an EC50 in data set [2] of 5 nM. For the same compound, the EC50 with human PBMC (setting [4]) is 22 nM. For the same compound, in data set [1] (female C57BL/6J mice), the AUC(0-t) is 150 ng·h/mL, the C0 came out at 2200 ng/mL and the clearance is 111 mL/min/kg.

In the case of `CCCn1nc(C)c(O)c1-c1nc(-n2nc(C(N)=O)c3cc(C)ncc32)n(C)n1` [Example 84, 1-[5-(4-hydroxy-5-methyl-2-propyl-pyrazol-3-yl)-2-methyl-1,2,4-triazol-3-yl]-5-methyl-pyrazolo[3,4-c]pyridine-3-carboxamide], the EC50 in data set [2] is 34 nM; in the data set with human PBMC (setting [4]) it was 18 nM.

As to `CCCCn1nc(C)c(O)c1-c1nc(-c2nc(C(N)=O)n3cc(C)ncc23)co1` [Example 86, 1-[2-(2-butyl-4-hydroxy-5-methyl-pyrazol-3-yl)oxazol-4-yl]-6-methyl-imidazo[1,5-a]pyrazine-3-carboxamide], the results for the EC50 (in data set [2]; with human PBMC (setting [4])) were 16 nM and 30 nM, respectively.

For the compound `CCCn1nc(C)c(O)c1-c1n[nH]c(-c2cc(C(N)=O)n3cc(C)ncc23)n1` [Example 91, 8-[3-(4-hydroxy-5-methyl-2-propyl-pyrazol-3-yl)-1H-1,2,4-triazol-5-yl]-3-methyl-pyrrolo[1,2-a]pyrazine-6-carboxamide], the EC50 in data set [2] worked out at 16 nM; in the data set on human PBMC (setting [4]) it was 38 nM.

As for `CCCn1nc(C)c(O)c1-c1nc(-c2c(F)c(C(N)=O)n3cc(C)ncc23)co1` [Example 93, 7-fluoro-8-[2-(4-hydroxy-5-methyl-2-propyl-pyrazol-3-yl)oxazol-4-yl]-3-methyl-pyrrolo[1,2-a]pyrazine-6-carboxamide], the EC50 came to 6 nM in data set [2] and 9 nM with human PBMC (setting [4]).

On to `CCCn1nc(C)c(O)c1-c1nc(-c2cc(C(N)=O)n3cc(C)ncc23)co1` [Example 94, 8-[2-(4-hydroxy-5-methyl-2-propyl-pyrazol-3-yl)oxazol-4-yl]-3-methyl-pyrrolo[1,2-a]pyrazine-6-carboxamide], for which the EC50 in data set [2] stood at 15 nM; with human PBMC (setting [4]), 6 nM.
